Experimental data: US20240269170A1, “Treatment of Inflammatory Conditions or Diseases” (Queen Mary University of London, priority 2021, published 2024)

System: K/B×N serum induced arthritis in C57BL/6 mice
Test: Sustained K/B×N serum induced arthritis, MCTR3 given 10 days after disease onset
Type: in vivo, mouse
Procedure: (A-D) K/B×N serum (100 μL via intraperitoneal injection, i.p.) was administered to C57BL/6 mice on days 0, 2 and 8 to initiate and prolong inflammatory arthritis. Mice were treated 1 μg/mouse MCTR3 or vehicle (PBS+0.1% EtOH) on day 10, 12 and 14 via intravenous (i.v.) injection. Disease course was assessed by evaluating A) clinical scores and B) paw oedema daily. Results are mean±SEM, n=9 mice per group. Statistical differences were evaluated using a Two-Way ANOVA. Arrows denote days when MCTR3 was administered. (C,D) paws were harvested on day 25, and cells liberated from the joints and the expression of phenotypic markers was evaluated on joint macrophages using flow cytometry and PLS-DA. (C) scores plot with highlighted regions denoting the clusters representing cells from each group and (D) VIP scores for each of the markers evaluated. Each dot in the score plot represents a separate mouse. (E-H) Arthritis was induced in DBA/1 mice by administration of 10 μg G6PI in CFA on Day 0. On day 24, 26 and 28 (denoted in blue arrows), mice were administered 1 μg/mouse MCTR3 or vehicle (PBS+0.1% EtOH) i.v. and (E) clinical scores and (F) paw oedema were measured. Results are mean±SEM, n=mice 7 per group from 2 separate experiments. Statistical differences were evaluated using a Two-Way ANOVA. (G-H) paws were harvested on day 36, and cells liberated from the joints and the expression of phenotypic markers was evaluated on joint macrophages using flow cytometry and PLS-DA. (G) scores plot with highlighted regions denoting the clusters representing cells from each group and (H) VIP scores for each of the markers evaluated. Each dot in the score plot represents a separate mouse.
FIG. 2: MCTR3 promotes bone and cartilage repair. C57BL/6 mice were administered 100 μL K/B×N serum i.p. on day 0, 2 and 8. Mice were treated with 1 μg/mouse MCTR3 or vehicle (PBS+0.1% EtOH) i.v. on day 10, 12 and 14. Hind paws and blood were collected on day 25 and A) glycosaminoglycan content was evaluated using Safranin-O staining. (left and centre panels) Representative images from Safranin-O stained knee joints and (right panel) quantification of Safranin-O stained knee joints. Results are mean±SEM, n=8 per group. Statistical differences were evaluated using Mann-Whitney U test. B-D) Expression of collagen type 2 (Col 2) and collagen type X (Col X) was evaluated using immunohistochemistry. B) Representative images from immunofluorescent assessment of Col 2 and Col X expression, C) mean intensity of Col 2 and D) average number of cells expressing Col X. Results are mean±SEM, n=5 per group, statistical differences were evaluated using Mann-Whitney U test. E-I) microCT analysis was performed on ankle joints ex vivo to assess bone callus cover. D) Representative images of ankles from vehicle and MCTR3 treated mice, where red represents the callus area. F) Callus tissue volume, G) bone volume, H) bone surface and I) the ratio of bone surface to bone volume of the ankles from mice treated with either vehicle or MCTR3. Results are mean±SEM, n=8 per group from two separate experiments. Statistical differences were evaluated Mann-Whitney U test. J,K) Blood was collected at the end of the experiment and plasma PINP and CTX-I levels were assessed. Results are mean±SEM, n=5 for Vehicle and n=7 for MCTR3 groups. Statistical differences were evaluated Mann Whitney U test.
FIG. 8: MCTR3 decreased leukocyte infiltration and cartilage damage in arthritic mice. Related to FIG. 1. C57BL/6 mice were administered 100 μL K/B×N serum i.p. on day 0, 2 and 8. Mice were treated with 1 μg/mouse MCTR3 or vehicle i.v. (PBS+0.1% EtOH) on day 10, 12 and 14. Hind paws were collected on day 25, fixed and stained using H&E stain. (A) representative images (B) Pannus size (C) leukocyte infiltration and (D) cartilage damage were evaluated. Results are mean±SEM. n=5 mice per group. IFP=intrapatellar fat, M=meniscus, TB=Tibia, PF=Pannus formation, Red arrows denote leukocyte infiltration. […]

[1] = 1 μg/mouse i.v. on day 10, 12 and 14
[2] = 1 μg/mouse i.v. on day 10, 12 and 14, hind paws day 25
[3] = 1 μg/mouse i.v., ELISA, end of experiment
[4] = 1 μg/mouse i.v., ankle joints day 25, microCT
[5] = 1 μg/mouse i.v., day 25, flow cytometry, VIP score
[6] = 1 μg/mouse i.v., day 25, immunohistochemistry

For `CC/C=C\C/C=C\C[C@H](O)[C@@H](/C=C/C=C/C=C\C/C=C\CCC(=O)O)SC[C@H](N)C(=O)O` [MCTR3, 13R-cysteinyl, 14S-hydroxy-4Z, 7Z, 9E, 11E, 13R, 14S, 16Z, 19Z-docosahexaenoic acid], the clinical scores [1] was “significant reduction”, the joint oedema [1] was “marked reduction” and the “safranin O-staining in joints (glycosaminoglycan content)” value (1 μg/mouse i.v. on day 10, 12 and 14, day 25) was “significantly higher”. The “cartilage damage (H&E)” value [2] was “significantly reducing”, the “leukocyte infiltration (H&E)” value [2] was “significantly reducing” and the resolution interval (1 μg/mouse i.v. on day 10, 12 and 14, vehicle ~9 days) was ~5 days. The “plasma CTX concentrations (bone resorption marker)” value [3] was “significant reduction”, the “plasma PINP levels (bone formation marker)” value [3] was “similar” and the “bone callus size (total volume and surface area occupied by the callus)” value [4] was “smaller”. For the same compound, the “surface to volume ratio in the callus” value [4] was “significant increase”, the “Arginase (Arg)-1 in joint macrophages” value [5] was “upregulation” and the “Interleukin (IL)-10 in joint macrophages” value [5] was “upregulation”. The “expression of collagen 2 in joints” value [6] was “increase” and the “expression of collagen X in joints” value [6] was “increase”.
